Two molecules from patent US20080009545A1, “Anticancer agents” (The Ohio State University Research Foundation, priority 2006, published 2008) can be followed below.

One assay has as its target Bcl-xL (Homo sapiens, UniProt Q07817). Nature of the assay: Competitive fluorescence polarization assay, Bak BH3 peptide binding to Bcl-xL. The protocol:
Competitive fluorescence polarization assay—The binding affinity of the test agent to Bcl-XL was analyzed by a competitive fluorescence polarization assay in which the ability of the agent to displace the binding of a Bak BH3-domain peptide to either Bcl-2 or Bcl-XL was determined. Flu-BakBH3, a Bak-BH3 peptide labeled at the NH2 terminus with fluorescein, was purchased from Genemed Synthesis (San Francisco, Calif.). COOH-terminal-truncated, His-tagged Bcl-XL was purchased from EMD Biosciences (San Diego, Calif.) and soluble glutathione S-transferase-fused Bcl-2 was obtained from Santa Cruz Biotechnology. The binding analysis was carried out in a dual-path length quartz cell with readings taken at […] at room temperature using a luminescence spectrometer according to an established procedure (19).
Determination of IC50 values—Data from cell viability and fluorescence polarization assays were analyzed by using the CalcuSyn software (Biosoft, Ferguson, Mo.) to determine IC50 values, in which the calculation was based on the medium-effect equation [i.e., log(fa/fu)=m log(D)−m log(Dm), where fa and fu denote fraction affected and unaffected, respectively; m represents the Hill-type coefficient signifying the sigmoidicity of the dose-effect curve; and D and Dm are the dose used and IC50, respectively.
In general terms: In fluorescence polarisation assays a small probe gives low polarisation when free and higher when bound to something large.

The next assay addresses T1, Bcl-xL/Bak interactions (Homo sapiens, UniProt Q07817).
T1 construct: the endogenous counterpart in PC-3 cells; endogenous in cells; host or cells: PC-3 cells
Nature of the assay: Co-immunoprecipitation of Bcl-xL/Bak in PC-3 cells. The class given is cell-based. On the procedure:
Immunoblotting—Cells were seeded in 10% FBS-containing RPMI-1640 medium for 24 h and treated with various agents as aforementioned. After individual treatments for 24 h, the adherent cells in T-25 or T-75 flasks were scraped, combined with the medium, and centrifuged at 2200 rpm for 10 min. The […] were recovered, placed on ice, and triturated with 20 to 50 μL of a chilled lysis buffer (M-PER Mammalian Protein Extraction Reagent; Pierce, Rockford, Ill.), to which was added 1% protease inhibitor cocktail (set III; EMD Biosciences, Inc., San Diego, Calif.). After a 30-min incubation on ice, the mixture was centrifuged at 16,100×g for 3 min. […]
Co-immunoprecipitation—PC3 cells treated with 40 μM α-tocopheryl succinate or 10 μM TS-1 for 24 h were scraped off the flask, transferred into centrifuge tubes, and centrifuged at 2200 rpm for 10 min to pellet the cells. […] Equal amounts of proteins from these lysates, as determined by the Bradford assay, were mixed with anti-Bcl-2 or anti Bcl-XL antibodies in an orbital shaker at 23° C. for 2 h, followed by 100 μL of protein A-agarose bead slurry at 4° C. for 12 h. […]

The next assay deals with Bcl-2 (Homo sapiens, UniProt P10415). The assay is described as follows: Competitive fluorescence polarization assay, Bak BH3 peptide binding to Bcl-2. As to conditions: Flu-BakBH3, read-out: IC50, disruption of BH3 domain-mediated interactions (Bak BH3 peptide) with Bcl-2.
The subject of assay [1] is Bcl-xL, Bcl-2, Bax, Bak, Bad, and Bid. Nature of the assay: Expression of Bcl-2 family members in PC-3 cells (Western blot). It counts as cell-based, human. As to conditions: 24 h, serum-free RPMI 1640. On the procedure:
(§1) Immunoblotting—Cells were seeded in 10% FBS-containing RPMI-1640 medium for 24 h and treated with various agents as aforementioned. After individual treatments for 24 h, the adherent cells in T-25 or T-75 flasks were scraped, combined with the medium, and centrifuged at 2200 rpm for 10 min. The […] were recovered, placed on ice, and triturated with 20 to 50 μL of a chilled lysis buffer (M-PER Mammalian Protein Extraction Reagent; Pierce, Rockford, Ill.), to which was added 1% protease inhibitor cocktail (set III; EMD Biosciences, Inc., San Diego, Calif.). After a 30-min incubation on ice, the mixture was centrifuged at 16,100×g for 3 min. Two μL of the suspension was taken for protein analysis using the Bradford assay kit (Bio-Rad, Hercules, Calif.); to the remaining solution was added the same volume of 2× SDS-polyacryl-amide gel electrophoresis sample loading buffer (100 mM Tris-HCl, pH 6.8, 4% SDS, 5% β-mercaptoethanol, 20% glycerol, and 0.1% bromphenol blue). The mixture was boiled for 10 min. Equal amounts of proteins were loaded onto 8-12% SDS-polyacrylamide gels. After electrophoresis, protein bands were transferred to nitrocellulose membranes in a semidry transfer cell. […]

In a further assay the test system is caspase-9. Nature of the assay: Caspase-9 activation in PC-3 cells (Western blot). It counts as cell-based, human. The conditions noted are these: 24 h. On the procedure:
as §1
(In general: In western blotting, separated proteins are transferred to a membrane and probed.)

T1 sequence (Q07817 whole entry): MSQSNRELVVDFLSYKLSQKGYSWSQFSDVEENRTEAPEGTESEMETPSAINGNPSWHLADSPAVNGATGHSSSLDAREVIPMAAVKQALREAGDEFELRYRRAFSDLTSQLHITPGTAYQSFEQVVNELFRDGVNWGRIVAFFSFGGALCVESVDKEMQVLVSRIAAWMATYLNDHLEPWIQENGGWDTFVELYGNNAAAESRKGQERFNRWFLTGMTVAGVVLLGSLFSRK
Chain of Bcl-xL (Q07817 1-212 limits assumed): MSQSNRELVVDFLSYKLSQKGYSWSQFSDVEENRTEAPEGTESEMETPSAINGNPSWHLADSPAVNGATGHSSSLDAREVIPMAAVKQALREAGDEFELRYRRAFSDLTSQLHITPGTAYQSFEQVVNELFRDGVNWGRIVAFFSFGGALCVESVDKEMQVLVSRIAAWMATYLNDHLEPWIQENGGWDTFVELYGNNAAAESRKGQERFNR
Chain of Bcl-2 (P10415 whole entry, species assumed, the tested form may be a part): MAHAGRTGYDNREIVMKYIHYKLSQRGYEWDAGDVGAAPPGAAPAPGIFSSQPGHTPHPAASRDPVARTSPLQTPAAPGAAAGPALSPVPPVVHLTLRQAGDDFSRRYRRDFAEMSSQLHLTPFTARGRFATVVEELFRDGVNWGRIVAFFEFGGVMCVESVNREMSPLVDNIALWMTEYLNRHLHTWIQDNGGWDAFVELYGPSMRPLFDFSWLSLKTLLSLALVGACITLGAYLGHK

Regarding `Cc1c(C)c2c(c(C)c1OC(=O)CCC(=O)O)CCC(C)(CCCC(C)CCCC(C)C)O2` (centres unmarked) [TS-1, succinic acid mono-[2-(4,8-dimethyl-nonyl)-2,5,7,8-tetramethyl-chroman-6-yl]ester], the “difference in IC50 between TS-1 and α-tocopheryl succinate in blocking Bak peptide binding to Bcl-xL” value on Bcl-xL is given as 3 fold. In addition, on Bcl-xL/Bak interactions (10 μM), the “intracellular binding of Bak to Bcl-xL” value is “abolished”.
With `Cc1c(C)c2c(c(C)c1OC(=O)CCC(=O)O)CC[C@@](C)(CCC[C@H](C)CCC[C@H](C)CCCC(C)C)O2` [α-tocopheryl succinate, reference compound], the IC50 at Bcl-xL (fluorescence polarization, Flu-BakBH3, read-out: IC50, disruption of BH3 domain-mediated interactions (Bak BH3 peptide) with Bcl-xL) was found to be 26 ± 2 µM. At Bcl-2, the IC50 turned out to be 26 ± 2 µM. Further, in assay [1], the Bad expression entry was “decrease” and the “expression level of Bcl-2 members other than Bad (Bcl-xL, Bcl-2, Bax, Bak, Bid)” value is “did not cause appreciable changes”. Moreover, at Bcl-xL/Bak interactions (40 μM, 12 h, vs DMSO control), the “level of Bak associated with Bcl-xL” value is listed as “significantly reduced”. In the assay on caspase-9, the caspase-9 activation entry is listed as “in a dose-dependent manner”.

As usually defined, the IC50 is the point on the concentration scale where inhibition reaches its midpoint.
